Measurements: PubChem BioAssay AID248 (DTP/NCI, 2004)
Several values for one entry are separate records, joined by “and”; a condition that tells them apart may be missing. Identical values can stand only once. Toxic doses and inconclusive results are not listed.

Test system: L1210 leukemia ip in BDF1 mice, survival T/C
Assay: NCI In Vivo Anticancer Drug Screen. Data for tumor model L1210 Leukemia (intraperitoneal) in B6D2F1 (BDF1) mice
Settings: endpoint: mean survival time, higher = longer survival
Method in brief: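 Ratio derived from survival: compound-dosed mice over vehicle-dosed mice, all bearing a transplantable tumor.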

[1] = dose: 100.0 mg/kg/injection, schedule: Q01DX001 (ip), vehicle: carboxymethylcellulose (CMC)
[2] = dose: 200.0 mg/kg/injection, schedule: Q01DX001 (ip), vehicle: carboxymethylcellulose (CMC)
[3] = dose: 400.0 mg/kg/injection, schedule: Q01DX001 (ip), vehicle: carboxymethylcellulose (CMC)
[4] = dose: 100.0 mg/kg/injection, schedule: Q01DX001 (ip), vehicle: saline with Tween-80
[5] = dose: 200.0 mg/kg/injection, schedule: Q01DX001 (ip), vehicle: saline with Tween-80
[6] = dose: 100.0 mg/kg/injection, schedule: Q01DX001 (ip), vehicle: saline
[7] = dose: 200.0 mg/kg/injection, schedule: Q01DX001 (ip), vehicle: saline
[8] = dose: 400.0 mg/kg/injection, schedule: Q01DX001 (ip), vehicle: saline
[9] = dose: 50.0 mg/kg/injection, schedule: Q01DX001 (ip), vehicle: saline

N#Cc1ccc(OCCCCCOc2ccc([N+](=O)[O-])cc2)cc1
T/C (dose: 75.0 mg/kg/injection, schedule: Q01DX009 (ip), vehicle: Klucel (hydroxypropylcellulose) (HPC)): 101 % of control | T/C (dose: 150.0 mg/kg/injection, schedule: Q01DX009 (ip), vehicle: Klucel (hydroxypropylcellulose) (HPC)): 97 % of control | T/C (dose: 300.0 mg/kg/injection, schedule: Q01DX009 (ip), vehicle: Klucel (hydroxypropylcellulose) (HPC)): 100 % of control

Clc1c(Cl)c(Cl)c(C(c2c(Cl)c(Cl)c(Cl)c(Cl)c2Cl)c2c(Cl)c(Cl)c(Cl)c(Cl)c2Cl)c(Cl)c1Cl
T/C (dose: 100.0 mg/kg/injection, schedule: Q01DX009 (ip), vehicle: saline with Tween-80): 97 % of control | T/C (dose: 200.0 mg/kg/injection, schedule: Q01DX009 (ip), vehicle: saline with Tween-80): 93 % of control | T/C (dose: 400.0 mg/kg/injection, schedule: Q01DX009 (ip), vehicle: saline with Tween-80): 89 % of control

CCCC(=O)c1cc(C)ccc1OC
T/C [1]: 103 % of control | T/C [2]: 106 % of control | T/C [3]: 106 % of control

Cc1ccc(CSC(=N)N)cc1
T/C [1]: 104 % of control

CC(=O)Nc1ccc2ccccc2c1-c1c(NC(C)=O)ccc2ccccc12
T/C (dose: 25.0 mg/kg/injection, schedule: Q04DX002 (ip), vehicle: saline with Tween-80): 97 % of control | T/C (dose: 50.0 mg/kg/injection, schedule: Q04DX002 (ip), vehicle: saline with Tween-80): 90 % of control

O=C1C2C3CCC(O3)C2C(=O)N1CSc1nc2ccccc2s1 (stereo not given)
T/C [4]: 96 % of control | T/C [5]: 90 % of control | T/C (dose: 400.0 mg/kg/injection, schedule: Q01DX001 (ip), vehicle: saline with Tween-80): 95 % of control

CCCCC1C(=O)N(c2ccccc2)N(c2ccccc2)C1=O
T/C (dose: 17.0 mg/kg/injection, schedule: Q01DX Z (ip), vehicle: water): 97 % of control | T/C (dose: 40.0 mg/kg/injection, schedule: Q01DX Z (ip), vehicle: water): 100 % of control | T/C (dose: 60.0 mg/kg/injection, schedule: Q01DX Z (ip), vehicle: water): 103 % of control | T/C (dose: 90.0 mg/kg/injection, schedule: Q01DX Z (ip), vehicle: water): 100 % of control | T/C (dose: 135.0 mg/kg/injection, schedule: Q01DX Z (ip), vehicle: water): 114 % of control

CCOC(=O)CC(=O)C1CCCCC1
T/C (dose: 50.0 mg/kg/injection, schedule: Q01DX001 (ip), vehicle: carboxymethylcellulose (CMC)): 95 % of control | T/C [1]: 95 % of control | T/C [2]: 97 % of control | T/C [3]: 95 % of control

O=c1[nH]cc(CCC(F)(F)F)c(=O)[nH]1
T/C (dose: 100.0 mg/kg/injection, schedule: Q04DX002 (ip), vehicle: sodium bicarbonate): 102 % of control | T/C (dose: 200.0 mg/kg/injection, schedule: Q04DX002 (ip), vehicle: sodium bicarbonate): 102 % of control

Clc1cc(N2CC2)nc(N2CC2)n1
T/C (dose: 1.56 mg/kg/injection, schedule: Q01DX001 (ip), vehicle: saline): 92 % of control | T/C (dose: 1.56 mg/kg/injection, schedule: Q04DX003 (ip), vehicle: saline): 110 % of control | T/C (dose: 1.6 mg/kg/injection, schedule: Q01DX009 (ip), vehicle: carboxymethylcellulose (CMC)): 118 % of control | T/C (dose: 2.14 mg/kg/injection, schedule: Q01DX009 (ip), vehicle: saline): 166 % of control and 184 % of control | T/C (dose: 2.5 mg/kg/injection, schedule: Q01DX001 (ip), vehicle: carboxymethylcellulose (CMC)): 111 % of control | T/C (dose: 2.7 mg/kg/injection, schedule: Q01DX009 (ip), vehicle: carboxymethylcellulose (CMC)): 120 % of control | T/C (dose: 3.12 mg/kg/injection, schedule: Q01DX001 (ip), vehicle: saline): 93 % of control | T/C (dose: 3.25 mg/kg/injection, schedule: Q01DX009 (ip), vehicle: saline with Tween-80): 185 % of control | T/C (dose: 3.25 mg/kg/injection, schedule: Q01DX009 (ip), vehicle: saline): 177 % of control and 226 % of control | T/C (dose: 4.12 mg/kg/injection, schedule: Q04DX003 (ip), vehicle: saline): 156 % of control | T/C (dose: 4.44 mg/kg/injection, schedule: Q01DX001 (ip), vehicle: carboxymethylcellulose (CMC)): 115 % of control | T/C (dose: 4.87 mg/kg/injection, schedule: Q01DX009 (ip), vehicle: saline): 103 % of control | T/C (dose: 5.0 mg/kg/injection, schedule: Q01DX001 (ip), vehicle: carboxymethylcellulose (CMC)): 120 % of control | T/C (dose: 5.0 mg/kg/injection, schedule: Q01DX001 (ip), vehicle: saline): 118 % of control | T/C (dose: 6.25 mg/kg/injection, schedule: Q01DX001 (ip), vehicle: saline): 98 % of control | T/C (dose: 6.25 mg/kg/injection, schedule: Q04DX003 (ip), vehicle: saline): 166 % of control and 173 % of control and 202 % of control | T/C (dose: 6.67 mg/kg/injection, schedule: Q01DX001 (ip), vehicle: carboxymethylcellulose (CMC)): 121 % of control | T/C (dose: 7.5 mg/kg/injection, schedule: Q01DX009 (ip), vehicle: carboxymethylcellulose (CMC)): 106 % of control | T/C (dose: 10.0 mg/kg/injection, schedule: Q01DX001 (ip), vehicle: carboxymethylcellulose (CMC)): 154 % of control | T/C (dose: 10.0 mg/kg/injection, schedule: Q01DX001 (ip), vehicle: saline): 156 % of control and 160 % of control | T/C (dose: 15.0 mg/kg/injection, schedule: Q01DX001 (ip), vehicle: saline): 160 % of control | T/C (dose: 20.0 mg/kg/injection, schedule: Q01DX001 (ip), vehicle: carboxymethylcellulose (CMC)): 104 % of control

c1ccc(C(CC(c2ccccc2)(c2ccccc2)c2ccccc2)(c2ccccc2)c2ccccc2)cc1
T/C [6]: 96 % of control | T/C [7]: 94 % of control | T/C [8]: 105 % of control

CCN(CC)CCC#N
T/C [9]: 94 % of control | T/C [6]: 94 % of control | T/C [7]: 100 % of control

O=C(Nc1ccc(C2=NCCCN2)cc1)Nc1ccc(NC(=O)Nc2ccc(C3=NCCCN3)cc2)c(Cl)c1
T/C (dose: 62.0 mg/kg/injection, schedule: Q01DX Z (ip), vehicle: carboxymethylcellulose (CMC)): 163 % of control | T/C (dose: 62.0 mg/kg/injection, schedule: Q01DX Z (oral), vehicle: carboxymethylcellulose (CMC)): 110 % of control | T/C (dose: 125.0 mg/kg/injection, schedule: Q01DX Z (oral), vehicle: carboxymethylcellulose (CMC)): 110 % of control | T/C (dose: 250.0 mg/kg/injection, schedule: Q01DX Z (oral), vehicle: carboxymethylcellulose (CMC)): 116 % of control | T/C (dose: 500.0 mg/kg/injection, schedule: Q01DX Z (oral), vehicle: carboxymethylcellulose (CMC)): 111 % of control

COc1ccc(CN2CCCN(Cc3ccc(OC)cc3OC)C2c2cc(Cl)ccc2O)c(OC)c1
T/C [9]: 95 % of control | T/C [6]: 86 % of control | T/C [7]: 95 % of control | T/C [8]: 86 % of control

CCC1=C(c2ccccc2)OS(=O)(=O)NC1=O
T/C (dose: 100.0 mg/kg/injection, schedule: Q04DX003 (ip), vehicle: saline): 97 % of control | T/C (dose: 200.0 mg/kg/injection, schedule: Q04DX003 (ip), vehicle: saline): 97 % of control | T/C (dose: 400.0 mg/kg/injection, schedule: Q04DX003 (ip), vehicle: saline): 109 % of control

CCSC1C(OC(C)=O)C(C(CI)OC(C)=O)OC1n1cc(C)c(=O)[nH]c1=O (stereo not given)
T/C (dose: 100.0 mg/kg/injection, schedule: Q01DX005 (ip), vehicle: saline): 93 % of control | T/C (dose: 200.0 mg/kg/injection, schedule: Q01DX005 (ip), vehicle: saline): 98 % of control

NC(=O)c1cc([N+](=O)[O-])c(Cl)c([N+](=O)[O-])c1
T/C (dose: 20.0 mg/kg/injection, schedule: Q04DX003 (ip), vehicle: Klucel (hydroxypropylcellulose) (HPC)): 97 % of control | T/C (dose: 40.0 mg/kg/injection, schedule: Q04DX003 (ip), vehicle: Klucel (hydroxypropylcellulose) (HPC)): 97 % of control | T/C (dose: 80.0 mg/kg/injection, schedule: Q04DX003 (ip), vehicle: Klucel (hydroxypropylcellulose) (HPC)): 103 % of control

CC(=O)c1cc2c(Br)cccc2oc1=O
T/C [6]: 91 % of control | T/C [7]: 98 % of control | T/C [8]: 95 % of control

CCCCN(CCCC)C(=O)N(CCCC)CCCC
T/C (dose: 50.0 mg/kg/injection, schedule: Q01DX001 (ip), vehicle: saline with Tween-80): 98 % of control | T/C [4]: 107 % of control | T/C [5]: 101 % of control

CC(C)(CO)NCc1ccccc1F
T/C (dose: 75.0 mg/kg/injection, schedule: Q01DX001 (ip), vehicle: saline): 103 % of control | T/C (dose: 150.0 mg/kg/injection, schedule: Q01DX001 (ip), vehicle: saline): 104 % of control | T/C (dose: 300.0 mg/kg/injection, schedule: Q01DX001 (ip), vehicle: saline): 98 % of control
